Experimental findings from patent US11192849B2, “Compounds, compositions, and methods for modulating ferroptosis and treating excitotoxic disorders” (THE TRUSTEES OF COLUMBIA UNIVERSITY IN THE CITY OF NEW YORK, priority 2013, dated 2021) are described below.

The subject of assay [1] is HT-1080 cells. Kind of assay: Mitochondrial cardiolipin peroxidation (10-N-nonylacridine orange) in HT-1080 cells. In kind it is cell-based, human. The settings on record: STS 100 nM, NAO probe. On the procedure:
200,000 HT-1080 cells were seeded into 6-well dishes (Corning). […] For the analysis of mitochondrial ROS, cells were incubated with 5 μM MitoSOX (Molecular Probes/Invitrogen) in HBSS for 10 minutes in the dark at 37° C. For the analysis of mitochondrial cardiolipin peroxidation, cells were incubated with NAO dissolved to a final concentration of 25 ng/mL in HBSS for 10 minutes in the dark at 37° C. Cells were then washed once in HBSS and measurements were subsequently acquired using an flow cytometer (BD/Accuri C6) equipped with a 488 nm laser for excitation of fluorophores. MitoSOX data were collected in the FL2 channel and NAO data was collected in the FL1 channel. Data are from three independent biological replicates of each experiment. Data were analyzed by one-way ANOVA with Bonferroni's post-hoc test.

Assay [2] has as its system rat corticostriatal brain slices, medium spiny neurons. Kind of assay: Brain slice assay for HD (httN90Q73-transfected corticostriatal slices). It is filed as cell-based. The settings on record: for number of healthy medium spiny neurons (MSNs): 10 nM, 100 nM and 1 μM, four days. As for the experimental part: 250 μm corticostriatal brain slices were prepared from postnatal day 10 CD Sprague-Dawley rat pups (Charles River) as previously described (Hoffstrom et al., 2010). Brain slice explants were placed in interface culture in 6-well plates using culture medium containing 15% heat-inactivated horse serum, 10 mM KCl, 10 mM HEPES, 100 U/ml penicillin/streptomycin, 1 mM MEM sodium pyruvate, and 1 mM L-glutamine in Neurobasal A (Invitrogen) and maintained in humidified incubators under 5% CO2 at 32 deg. C. A custom-modified biolistic device (Helios Gene Gun; Bio-Rad) was used to transfect the brain slices with a human htt exon-1 expression construct containing a 73 CAG repeat (“HttN90Q73”) in the gWiz backbone (Genlantis) together with a YFP expression construct to visualize transfected neurons. Control brain slices were transfected with gWiz blank vector and YFP at the equivalent DNA amounts. After 4 days of incubation, MSNs were identified by their location within the striatum and by their characteristic dendritic morphology and scored as healthy if expressing bright and continuous YFP labeling throughout, normal-sized cell bodies, and >2 primary dendrites >2 cell bodies long, as previously described^21. Data were expressed as mean numbers of healthy MSNs per striatal region in each brain slice, with statistical significance tested by ANOVA followed by Dunnett's post hoc comparison test at the 0.05 confidence level. […]
Fer-1 attenuates lipid peroxidation and ferroptosis in cancer cells treated with small molecules that block cystine import or glutathione production, as well as cell death in rat organotypic hippocampal brain slices treated with toxic concentrations of glutamate, which also blocks cystine import (Dixon, et al., 2012). […] Four days later, the number of healthy medium spiny neurons (MSNs) was quantified, as previously described (Varma, et al., 2011, Hoffstrom, et al., 2010).

Assay [3] deals with HT-1080 cells. Kind of assay: Acridine orange relocalization (lysosomal membrane permeabilization) in HT-1080 cells. The settings on record: acridine orange re-localization. In kind it is cell-based, human. As for the experimental part: 200,000 HT-1080 cells were seeded into 6-well dishes (Corning). The next day, cells were incubated with 25 ng/mL of AO for 15 minutes, then medium was removed and cells were incubated in growth medium for 15 minutes. […] Relocalization of AO from lysosomes (discrete red puncta) to the cytosol (diffuse green color) was determined using an EVOS fl digital inverted fluorescent microscope (Advanced Microscopy Group) equipped with GFP (ex/em 470/525) and RFP (ex/em 531/593) light cubes.

Assay [4] relates to C57BL/6 mice, kidney ischemia-reperfusion injury. Kind of assay: Kidney model of ischemia-reperfusion injury (IRI). It is filed as in vivo. As for the experimental part: As an initial in vivo study, the effects of Fer-1 and SRS16-86 on serum creatinine, a marker of kidney damage, were evaluated in an ischemia reperfusion injury (IRI) model of kidney failure (FIG. 21).
Organs were dissected as indicated in each experiment and infused with 4% (vol/vol) neutral-buffered formaldehyde, fixated for 48 h, dehydrated in a graded ethanol series and xylene, and finally embedded in paraffin. Stained sections were analyzed using an Axio Imager microscope (Zeiss). Kidney damage was quantified by two experienced pathologists in a double-blind manner on a scale ranging from 0 (unaffected tissue) to 10 (severe organ damage). The following parameters were chosen as indicative of morphological damage to the kidney after ischemia-reperfusion injury (IRI): brush border loss, red blood cell extravasation, tubule dilatation, tubule degeneration, tubule necrosis, and tubular cast formation. These parameters were evaluated on a scale of 0-10, which ranged from not present (0), mild (1-4), moderate (5 or 6), severe (7 or 8), to very severe (9 or 10). Each parameter was determined on at least four different animals.
Induction of kidney IRI was performed via a midline abdominal incision and a bilateral renal pedicle clamping for either 40 min (severe IRI, or “lethal-to-WT” IRI) or 50 min (ultra-severe IRI) using microaneurysm clamps (Aesculab). Throughout the surgical procedure, the body temperature was maintained between 36° C. and 37° C. by continuous monitoring using a temperature-controlled self-regulated heating system (Fine Science Tools). After removal of the clamps, reperfusion of the kidneys was confirmed visually. The abdomen was closed in two layers using standard 6-0 sutures. Sham-operated mice underwent the identical surgical procedures, except that microaneurysm clamps were not applied. To maintain fluid balance, all of the mice were supplemented with 1 mL of prewarmed PBS administered intraperitoneally directly after surgery. All mice were killed 48 h after reperfusion for each experiment. […] All ischemia-reperfusion experiments were performed in a double-blinded manner.

Consider `CCOC(=O)c1ccc(NC2CCCCC2)c(N)c1` [SRS8-28 (Fer-1), ethyl 3-amino-4-(cyclohexylamino)benzoate], for which the “mitochondrial cardiolipin oxidation in response to staurosporine” value in the assay with HT-1080 cells [1] is “did not prevent”. The “number of healthy medium spiny neurons (MSNs)” value in assay [2] is “significant increase in the number of healthy MSNs”. The “number of healthy MSNs versus controls” value in assay [2] (1 μM) was “statistically indistinguishable from both the YFP (no htt) control and the control inhibitor combination”. The “lysosomal membrane destruction in response to H2O2” value with HT-1080 cells [3] is “did not prevent”. The “serum creatinine in IRI model of kidney failure” value in assay [4] (2 mg/kg IP 30 minutes prior to induction of IRI) was “effective”. Further, the “functional acute renal failure and structural organ damage after severe IRI” value in assay [4] (40 min ischemia, 48 h after reperfusion, 2 mg/kg i.p.) is recorded as “protected from functional acute renal failure”.
Take `CCOC(=O)c1ccc(NC2CCCCC2)c(NCc2ccccc2)c1` [SRS11-92, ethyl 3-(benzylamino)-4-(cyclohexylamino)benzoate]: the “number of healthy medium spiny neurons (MSNs)” value in assay [2] is on record as “significant increase in the number of healthy MSNs”.
